{"source": "paper PMC11280390", "about": "“Synthesis of Nitrostyrylthiazolidine-2,4-dione Derivatives Displaying Antileishmanial Potential” (Pharmaceuticals, 2024)", "key": {"[1]": {"test_system": "Leishmania infantum promastigotes", "assay": "In vitro antileishmanial activity on L. infantum promastigotes (MTT, 72 h)", "format": "cell-based", "details": "Leishmania infantum, L. infantum promastigotes, MTT, read-out: Anti-L. infantum Promastigote Activity EC50", "experimental": "Luciferase-expressing Leishmania infantum was kindly provided by Professor Thierry Lang of the Institut Pasteur. L. infantum promastigotes were routinely grown at 27 °C in Schneider’s Drosophila Medium (Dominique […] SAS, Bernolsheim, France) supplemented with 10% fetal calf serum, 2% human urine, sodium pyruvate 0.04 mM, hemin 0.1 µg/mL, HEPES 5 mM, streptomycin 100 µg/mL, penicillin 100 U/mL, L-glutamine 2 mM (culture medium). The in vitro evaluation of the antileishmanial activity of the tested compound on L. infantum promastigotes forms was assessed according to the Mosmann protocol with slight modifications. […] Appropriate controls treated with DMSO, Miltefosine, Amphotericin B and Fexinidazole sulfone (reference drugs purchased from Sigma-Aldrich, Saint-Louis, MO, USA) were added to each set of experiments. The plates were incubated at 27 °C for 72 h, Then, each plate-well was microscope-analyzed to detect any precipitate formation. Afterward, 20 µL of MTT (3-(4,5-dimethylthiazol-2-yl)-2,5-diphenyltetrazolium bromide) (Sigma-Aldrich, Saint-Louis, MI, USA) solution (5 mg/mL in PBS) were added to each well and incubated at 27 °C for 4 h. The reaction was then stopped by the addition of 100 µL of 10% sodium dodecyl sulfate—50% isopropanol. Plates were shaken vigorously at 400 rpm for 10 min. […] EC50 values represent the mean value calculated from at least three separate experiments."}, "[2]": {"assay": "Lipophilicity by Chromatographic Hydrophobicity Index (CHI)", "format": "physicochemical", "details": "pH 7.4, CHI; read-out: CHI logD7.4", "experimental": "B: acetonitrile, at a flow rate of 0.300 mL/min and 0.5-µL injections. The validity of the CHI versus retention time was established on a reference mixture containing theophylline, phenyltetrazole, benzimidazole, acetophenone, propiophenone, butyrophenone and valerophenone."}, "[3]": {"test_system": "wild-type L. donovani (LdBOB) promastigotes", "assay": "Antileishmanial activity against wild-type L. donovani promastigotes", "format": "cell-based", "details": "Leishmania donovani, read-out: EC50 Values, WT", "experimental": "(§1) EC50 values were determined as previously described. Nifurtimox was used as a positive control for activation via NTR1 [38] while delamanid was used as a positive control for activation via NTR2 [39]."}, "[4]": {"assay": "Aqueous solubility in PBS by shake-flask method", "format": "physicochemical", "details": "25 °C, pH 7.4, aqueous buffer, thermodynamic from solid, PBS pH 7.4, 25 °C", "experimental": "Briefly, an excess of compound (approx. 2 mg) was stirred in PBS (0.5 mL, 0.15 M, pH 7.4) at 25 °C for 72 h. A 100 µL sample was drawn, any excess material removed by centrifugation, and diluted tenfold with methanol/water 1:1 before HPLC-UV quantification using a pre-established calibration curve (PLRP-S column (Agilent), 3 µm particle size, 100 A porosity, 50 × 2.1 mm internal dimensions). Eluent: isocratic acetonitrile/water/formic acid 80:20:0.1, 0.4 mL/min, detection at 320 nm, 2-µL injections)."}, "[5]": {"test_system": "HepG2 cell line", "assay": "In vitro cytotoxicity on the human hepatic HepG2 cell line (MTT, 72 h)", "experimental": "(§2) HepG2 cell line (hepatocarcinoma cell line purchased from ATCC, ref HB-8065) was maintained at 37 °C, 5% CO2 with 90% humidity in MEM supplemented with 10% fetal bovine serum, 1% L-glutamine (200 mM) and penicillin (100 U/mL)/streptomycin ([…]) (complete MEM medium). The tested molecules’ cytotoxicity was assessed according to the method of Mosmann with slight modifications. Briefly, 5 × 10^3 cells in 100 μL of complete medium were inoculated into each well of 96-well plates and incubated at 37 °C in a humidified 5% CO2. After 24 h incubation, 100 μL of medium with various product concentrations dissolved in DMSO (final concentration less than 0.5% v/v) were added and the plates were incubated for 72 h at 37 °C. Triplicate assays were performed for each sample. Each plate well was then microscope-examined to detect possible precipitate formation before the medium was aspirated from the wells. Then, 100 μL of MTT (3-(4,5-dimethyl-2-thiazolyl)-2,5-diphenyl-2H-tetrazolium bromide) solution (0.5 mg/mL in medium without FCS) were then added to each well. Cells were incubated for 2 h at 37 °C, following which the MTT solution was removed and DMSO (100 μL) was added to dissolve the resulting blue formazan crystals. Plates were shaken vigorously (700 rpm) for 10 min. The absorbance was measured at 570 nm with 630 nm as reference wavelength using a TECAN Infinite F-200 spectrophotometer (Tecan Trading AG, Männedorf, Switzerland). DMSO was used as blank and doxorubicin (purchased from Sigma Aldrich, Saint Louis, MI, USA) as positive control. Cell viability was calculated as a percentage of control (cells incubated without compound). […] CC50 values represent the mean value calculated from three separate experiments."}, "[6]": {"assay": "In vitro cytotoxicity on the human hepatic HepG2 cell line (MTT, 72 h)", "details": "human, HepG2 cells (hepatocarcinoma cell line, ATCC HB-8065), HepG2 Cytotoxicity CC50, HepG2, 72 h, MTT", "experimental": "as §2"}, "[7]": {"test_system": "L. donovani promastigotes overexpressing NTR2", "assay": "microbe, parasite or virus in culture", "format": "cell-based", "details": "Leishmania donovani, read-out: EC50 Values, NTR2 OE", "experimental": "as §1"}, "[8]": {"test_system": "L. donovani promastigotes overexpressing NTR1", "assay": "microbe, parasite or virus in culture", "format": "cell-based", "details": "Leishmania donovani, read-out: EC50 Values, NTR1 OE", "experimental": "as §1"}, "[9]": {"test_system": "THP-1 cell line", "assay": "In vitro cytotoxicity on the human monocyte THP-1 cell line (MTT, 72 h)", "format": "cell-based", "details": "THP-1 CC50 / L. infantum promastigote EC50", "experimental": "(§3) The undifferentiated THP1 human monocyte cells (acute monocytic leukemia cell line purchased from ATCC, ref TIB-202) were routinely grown in RPMI 1640 medium (Life Technologies, Saint-Aubin, France) supplemented with 10% FCS (Life Technologies, Saint-Aubin, France), 100 U/mL penicillin, 100 µg/mL streptomycin and 2 mM L-glutamine at 37 °C, 5% CO2. The culture was maintained between 3.10^5 and 8.10^5 cells/mL. […] Wells were washed with RPMI and 100 µL of fresh complete medium was added. […] Then, 100 µL of MTT solution (0.5 mg/mL in medium) was added to each well. Cells were incubated for 2 h at 37 °C. […] Plates were shaken vigorously (700 rpm) for 10 min. […] (Palo Alto, CA, USA)."}, "[10]": {"assay": "In vitro cytotoxicity on the human monocyte THP-1 cell line (MTT, 72 h)", "format": "cell-based", "details": "human; THP-1, 72 h, MTT", "experimental": "as §3"}}, "note": "Where “and” joins values, the source holds several entries; their conditions need not be identical. Equal entries are not always repeated. Where two headings read alike, the source gives them in different places."}
{"smiles": "N#CCN1C(=O)S/C(=C\\c2cccc([N+](=O)[O-])c2)C1=O", "note": "[Compound 14c, (Z)-2-(5-(3-Nitrobenzylidene)thiazolidine-2,4-dion-3-yl)acetonitrile]", "values": [{"measurement": "EC50", "setting": "[1]", "result": "7 ± 2.96", "unit": "µM"}, {"measurement": "chromatographic logD", "setting": "[2]", "result": 2.85}, {"measurement": "EC50", "setting": "[3]", "result": 22.1, "unit": "µM"}, {"measurement": "solubility at 72 h", "setting": "[4]; read-out: PBS Solubility (log S) (converted)", "result": 15.8, "unit": "µM"}, {"measurement": "solubility at 72 h", "setting": "[4]; read-out: PBS solubility", "result": 16, "unit": "µM"}, {"measurement": "Selectivity INDEX (SI = CC50/EC50)", "setting": "[5]; HepG2 CC50 / L. infantum promastigote EC50", "result": "14 and 14.4"}, {"measurement": "CC50", "setting": "[5]; read-out: HepG2 Cytotoxicity CC50, HepG2, 72 h, MTT", "result": "101 ± 19.3", "unit": "µM"}, {"measurement": "CC50 at 72 h", "setting": "[6]", "result": 101, "unit": "µM"}, {"measurement": "melting point", "result": "173 to 175", "unit": "°C"}, {"measurement": "EC50", "setting": "[7]", "result": 18.5, "unit": "µM"}, {"measurement": "EC50", "setting": "[8]", "result": "3.78 ± 0.313", "unit": "µM"}, {"measurement": "Selectivity index (THP-1)", "setting": "[9]", "result": 17}, {"measurement": "CC50 at 72 h", "setting": "[10]", "result": "121 ± 9", "unit": "µM"}]}
